The source of these data is patent publication US5391817A, “Biaryl phospholipase A2 inhibitors” (Bristol-Myers Squibb, priority 1993, dated 1995).

The experiment deals with T1, PLA2 (Homo sapiens, UniProt P14555).
T1 construct: The enzyme is isolated from human platelets; from tissue; host or cells: human platelets
T1 sequence (P14555 21-144): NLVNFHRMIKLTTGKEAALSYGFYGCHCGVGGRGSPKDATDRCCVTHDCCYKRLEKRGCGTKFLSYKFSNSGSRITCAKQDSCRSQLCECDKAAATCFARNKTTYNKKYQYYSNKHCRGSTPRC
The experiment in a line: PLA2 Inhibition Assay (14C-oleate labeled E. coli membrane substrate). Format: biochemical. To be noted: 100 μM; PLA2 from human platelets; pH 7, 37° C. On the procedure:
The method used is similar to that reported by Franson, et al. [Jesse, R. L. and Franson R. C., Biochim. Biophys. Acta 575: 467-470 (1979); Franson, R. C., Patriarca, P., and Elsback, P., J. Lipid Res. 15: 380-388 (1974)]. The enzyme is isolated from human platelets. The substrate used consists of ^14 C-oleate labeled Escherichia coli membranes. E. coli cells are grown in the presence of ^14 C-oleic acid and then autoclaved to prepare the membranes.
Various concentrations of test compounds are preincubated with PLA2 (3.6 mg/mL in a buffer consisting of 25 mM HEPES (pH 7)), 150 mM NaCl, 5.0 mM CaCl2, and 10% DMSO (v/v, test compound solvent) at 37° C. for 7 minutes. The E. coli substrate is then added (0.1 mM phospholipid, 0,005 mCi ^14 C) and the reaction is then incubated at 37° C. for 30 minutes. The reaction is then terminated by the addition of 1.9 mL tetrahydrofuran (THF), and the entire solution is applied to a solid-phase extraction column (aminopropyl resin, Analytichem). The column is rinsed with an additional 1 mL of THF. The free fatty acid product of the reaction is then eluted from the column with 1 mL 2% acetic acid in THF and collected in a scintillation vial. The amount of free fatty acid product is determined by liquid scintillation counting. The amount of inhibition produced by the test compound is calculated by comparing the counts obtained in the presence of the compound to those obtained in its absence (solvent only). Background counts were determined by performing incubations in the absence of enzyme.
Percent inhibition is determined by the equation: [formula]

In turn, `CCCCCOc1ccc(COc2cccc(C(=O)O)c2-c2ccccc2)cc1OCCCCC` [Structure 14i, 2-[(3,4-bispentyloxy)phenyl]methoxy-[1,1'-biphenyl]-6-carboxylic acid] registered an inhibition at 100 µM of 99%.

Consider `CC1(C)CCC(C)(C)c2cc(COc3cccc(CCC(=O)O)c3-c3cccc(C(=O)O)c3)ccc21` [Structure 37d, 3'-carboxy-2-[5,6,7,8-tetrahydro-5,5,8,8-tetramethyl-2-naphthalenyl]methoxy-[1,1'-biphenyl]-6-propanoic acid], for which at 100 µM the inhibition was 54%.

Molecule `C/C(=C\c1cccc(C(=O)O)c1-c1cccc(C(=O)O)c1)c1ccc2c(c1)C(C)(C)CCC2(C)C` [Structure 11, (E)-[2-(5,6,7,8-tetrahydro-5,5,8,8-tetramethyl-2-naphthalenyl)-1-propenyl]-[1,1'-biphenyl]-6,3'-dicarboxylic acid] gave an inhibition at 100 µM of 80%.

On to `C/C(=C\c1cccc(CC(=O)O)c1-c1cccc(C(=O)O)c1)c1ccc2c(c1)C(C)(C)CCC2(C)C` [Structure 28b, 3'-carboxy-(E)-2-[(5,6,7,8-tetrahydro-5,5,8,8,-tetramethyl-2-naphthalenyl)-1-propenyl]-[1,1'-biphenyl]-6-acetic acid], for which at 100 µM the inhibition was 96%.

In the case of `COc1cc(COc2cccc(C(=O)O)c2-c2ccccc2)ccc1C12CC3CC(CC(C3)C1)C2` [Structure 14g, 2-[4-(1-adamantyl)-3-methoxyphenyl]methoxy-[1,1'-biphenyl]-6-carboxylicacid], at 100 µM the inhibition was 44%.

Turning to `CC1(C)CCC(C)(C)c2cc(COc3cccc(/C=C/C(=O)O)c3-c3cccc(C(=O)O)c3)ccc21` [Structure 39d, 3'-carboxy-2-[5,6,7,8-tetrahydo-5,5,8,8-tetramethyl-2-naphthalenyl]methoxy-[1,1'-biphenyl]-6-[(E)-3-propenoic acid]], the inhibition at 100 µM came to 72%.

`CCCCCOc1ccc(COc2cccc(C(=O)O)c2-c2cccc(C(=O)O)c2)cc1OCCCCC` [Structure 14c, 2-[(3,4-bispentyloxy)phenyl]methoxy-[1,1'-biphenyl]-6,3'-dicarboxylic acid] displayed an inhibition at 100 µM of 53%.

Molecule `CC1(C)CCC(C)(C)c2cc3cc(-c4cccc(CC(=O)O)c4-c4cccc(C(=O)O)c4)ccc3cc21` [Structure 28c, 3'-carboxy-2-[(1,2,3,4-tetrahydro-1,1,4,4-tetramethyl)-6-anthracenyl]-[1,1'-biphenyl]-6-acetic acid] gave an inhibition at 100 µM of 93%.

In turn, `O=C(O)Cc1cccc(OCc2ccc(OC3CCCC3)c(OC3CCCC3)c2)c1-c1cccc(C(=O)O)c1` [Structure 30b, 2-[(3,4-biscyclopentyloxy)phenyl]methoxy-3'-carboxy-[1,1'-biphenyl]-6-acetic acid] showed an inhibition at 100 µM of 79%.

For the molecule `CC1(C)CCC(C)(C)c2cc(COc3cccc(C(=O)O)c3-c3cccc(CC(=O)O)c3)ccc21` [Structure 14q, 6-carboxy-2-[5,6,7,8-tetrahydro-5,5,8,8-tetramethyl-2-naphthalenyl]methoxy-[1,1'-biphenyl]-3'-acetic acid], at 100 µM the inhibition was 72%.

In turn, `CCCCCOc1ccc(COc2cccc(C(=O)O)c2-c2cccc(C(F)(F)F)c2)cc1OCCCCC` [Structure 14j, 2-[(3,4-bispentyloxy)phenyl]methoxy-[1,1'-biphenyl]-3'-trifluoromethyl-6-carboxylic acid] returned an inhibition at 100 µM of 98%.

As for `CCCCCCCCCCOc1ccc(COc2cccc(C(=O)O)c2-c2cccc(C(=O)O)c2)cc1OCCCCCCCCCC` [Structure 14a, 2-[(3,4-bisdecyloxy)phenyl]methoxy-[1,1'-biphenyl]-6,3'-dicarboxylic acid], the inhibition at 100 µM came out at 99%.

As for `O=C(O)CCc1cccc(OCc2ccc(OC3CCCC3)c(OC3CCCC3)c2)c1-c1cccc(C(=O)O)c1` [Structure 37b, 2-[3,4-bis(cyclopentyloxy)phenyl]methoxy-3'-carboxy-[1,1'-biphenyl]-6-propanoic acid], the inhibition at 100 µM turned out to be 51%.

Take `CCCCCCCCCCOc1ccc(COc2cccc(C(=O)O)c2-c2ccccc2)cc1` [Structure 14k, 2-[(4-decyloxy)phenyl]methoxy-[1,1'-biphenyl]-6-carboxylic acid]: at 100 µM the inhibition was 99%.

`CCCCCOc1ccc(COc2cccc(C(=O)O)c2-c2ccccc2)cc1O` [Structure 14e, 2-[(3-hydroxy-4-pentyloxy)phenyl]methoxy-[1,1 '-biphenyl]-6-carboxylic acid] showed an inhibition at 100 µM of 34%.

The molecule `CCCCCOc1ccc(COc2cccc(CCC(=O)O)c2-c2cccc(C(=O)O)c2)cc1OCCCCC` [Structure 37c, 2-[3,4-bis (pentyloxy)phenyl]methoxy-3'-carboxy-[1,1'-biphenyl]-6-propanoic acid] came in with an inhibition at 100 µM of 59%.

In general, inhibition refers to how much of the control response was suppressed. High values mean strong suppression, low ones little suppression.
